Source: US20250011330A1, “Imidazo[1,2- a]pyrazine and Imidazo[1,2- a]pyridine Based Tyrosyl-DNA Phosphodiesterase I (TDP1) Inhibitors” (The USA, As Represented by the Secretary, Department of …, priority 2021, published 2025)
Read-outs that look alike come from different tables or passages of the source.

Experiments:
TDP2 = TDP2 (Homo sapiens (Human), UniProt O95551); test: gel-based TDP2 fluorescence assay in vitro; format: biochemical; details: read-out: TDP2 IC50
Experimental: (§1) (TDP assay buffer: 50 mM Tris HCl, pH 7.5, 80 mM KCl, 2 mM EDTA, 1 mM DTT, 40 μg/ml BSA and 0.01% Tween-20. TDP1 (20 mg/mL in 25 mM Tris-HCl pH 7.2, 150 mM NaCl, 2 mM tris(2-carboxyethyl)phosphine) with 2 mL of well solution composed of 0.1 M MOPS/HEPES pH 7.5, 10% (w/v) PEG 8000, 20% (v/v) ethylene glycol, 0.03 M sodium fluoride, 0.03 M sodium bromide, 0.03 M sodium iodide, 0.03 M sodium bromide and sealed over […] well solution. AF647 labelling buffer: Tris-HCl (pH 7.2, 25 mM), NaCl (150 mM), and tris(2-carboxyethyl)phosphine hydrochloride (TCEP, 2 mM).)
(§2) (DNA only: Buffer+DMSO. DMSO only: Enzyme+DMSO. Drug: Enzyme+Drug, 25° C., 10 min+DNA, reaction at 25° C., 15 min.)

TDP1 = TDP1 (Homo sapiens (Human), UniProt Q9NUW8); test: TDP1 gel-based in vitro fluorescence assay; format: biochemical; details: for IC50: read-out: TDP1 IC50
TDP1, sequence (Q9NUW8 whole entry): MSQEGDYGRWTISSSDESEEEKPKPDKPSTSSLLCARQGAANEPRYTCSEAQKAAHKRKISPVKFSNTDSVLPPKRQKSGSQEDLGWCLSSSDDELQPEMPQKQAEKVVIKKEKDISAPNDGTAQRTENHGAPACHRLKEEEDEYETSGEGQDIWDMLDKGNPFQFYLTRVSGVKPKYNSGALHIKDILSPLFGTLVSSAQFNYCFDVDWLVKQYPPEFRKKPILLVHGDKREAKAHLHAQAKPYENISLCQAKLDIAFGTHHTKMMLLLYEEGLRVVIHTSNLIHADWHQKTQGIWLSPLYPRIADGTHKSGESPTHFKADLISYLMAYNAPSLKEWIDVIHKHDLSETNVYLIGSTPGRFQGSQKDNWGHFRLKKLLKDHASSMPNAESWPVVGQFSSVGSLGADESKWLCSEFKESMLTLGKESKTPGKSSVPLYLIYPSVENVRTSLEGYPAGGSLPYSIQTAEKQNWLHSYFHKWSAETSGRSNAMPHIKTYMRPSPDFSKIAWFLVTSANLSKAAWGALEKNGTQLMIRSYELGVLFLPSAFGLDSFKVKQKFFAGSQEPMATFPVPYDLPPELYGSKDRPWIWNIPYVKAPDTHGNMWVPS
Experimental: as §1, §2
Gel images were scanned using a Typhoon FLA 9500 scanner (GE Healthcare) and densitometric analyses were performed using the ImageQuant software (GE Healthcare). The IC50 of TDP1 inhibitors was calculated by comparing the percentage of cleavage product (5′Cy5-[…]-p-3′) to DMSO control.

[1] = Table 7, HPLC-purified oxime leads
[2] = Table 7, ratio of IC50 TDP2 to TDP1
[3] = Table 9, fluorosulfates and sulfonyl fluorides
[4] = Table 8, lead compounds with different linkers

TDP2, sequence (O95551 whole entry, species assumed): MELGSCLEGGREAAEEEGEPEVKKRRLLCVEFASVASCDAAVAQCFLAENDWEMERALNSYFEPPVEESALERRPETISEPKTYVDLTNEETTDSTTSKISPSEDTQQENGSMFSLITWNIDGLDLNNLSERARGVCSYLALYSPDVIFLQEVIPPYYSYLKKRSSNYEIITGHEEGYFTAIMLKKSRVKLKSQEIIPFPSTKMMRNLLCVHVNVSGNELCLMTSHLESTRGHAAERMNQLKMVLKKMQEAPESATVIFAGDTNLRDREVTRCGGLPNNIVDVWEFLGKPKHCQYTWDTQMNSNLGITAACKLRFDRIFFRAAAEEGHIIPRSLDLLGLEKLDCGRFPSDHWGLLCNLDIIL

IC50 (TDP2; Table 10, PROTACs) [µM] | IC50 (TDP1; Table 10, PROTACs) [µM] | IC50 (TDP2; [1]) [µM] | FC (fold change) (TDP1; [2]) | Structure (SMILES) | further results
> 100 | > 100 | – | – | Cc1ncsc1-c1ccc(CNC(=O)[C@@H]2C[C@@H](O)CN2C(=O)[C@@H](NC(=O)COCCOCCOCCOCCn2cc(COc3ccc(-c4nc5cc(-c6ccccc6)ccn5c4Nc4ccc(C(=O)O)cc4)cc3)nn2)C(C)(C)C)cc1 [XZ681, 4-((2-(4-((1-((S)-16-((2S,4R)-4-Hydroxy-2-((4-(4-methylthiazol-5-yl)benzyl)carbamoyl)pyrrolidine-1-carbonyl)-17,17-dimethyl-14-oxo-3,6,9,12-tetraoxa-15-azaoctadecyl)-1H-1,2,3-triazol-4-yl)methoxy)phenyl)-7-phenylimidazo[1,2-a]pyridin-3-yl)amino)benzoic acid] | –
– | – | > 100 | >2 | O=C(O)c1ccc(Nc2c(-c3ccc(CO/N=C\c4ccc(-c5cnccn5)cc4)cc3)nc3cc(-c4ccccc4)ccn23)cc1 [XZ709, (Z)-4-((7-Phenyl-2-(4-((((4-(pyrazin-2-yl)benzylidene)amino)oxy)methyl)phenyl)imidazo[1,2-a]pyridin-3-yl)amino)benzoic acid] | –
> 100 | > 100 | – | – | O=C1CCC(N2C(=O)c3cccc(OCCOCCOCc4cn(Cc5ccc(-c6nc7cc(-c8ccccc8)ccn7c6Nc6ccc(C(=O)O)cc6)cc5)nn4)c3C2=O)C(=O)N1 (stereo not shown) [XZ743, 4-((2-(4-((4-((2-(2-((2-(2,6-Dioxopiperidin-3-yl)-1,3-dioxoisoindolin-4-yl)oxy)ethoxy)ethoxy)methyl)-1H-1,2,3-triazol-1-yl)methyl)phenyl)-7-phenylimidazo[1,2-a]pyridin-3-yl)amino)benzoic acid] | –
> 100 | > 100 | – | – | Cc1ncsc1-c1ccc(CNC(=O)[C@@H]2C[C@@H](O)CN2C(=O)[C@@H](NC(=O)COCCOCCOCCn2cc(-c3ccn4c(Nc5ccc(C(=O)O)cc5)c(-c5ccccc5)nc4c3)nn2)C(C)(C)C)cc1 [XZ683, 4-((7-(1-((S)-13-((2S,4R)-4-Hydroxy-2-((4-(4-methylthiazol-5-yl)benzyl)carbamoyl)pyrrolidine-1-carbonyl)-14,14-dimethyl-11-oxo-3,6,9-trioxa-12-azapentadecyl)-1H-1,2,3-triazol-4-yl)-2-phenylimidazo[1,2-a]pyridin-3-yl)amino)benzoic acid] | –
> 100 | > 100 | – | – | O=C(COc1cccc2c1C(=O)N(C1CCC(=O)NC1=O)C2=O)NCCCCn1cc(-c2ccc(-c3nc4ccccn4c3Nc3ccc(C(=O)O)cc3)cc2)nn1 (stereo not shown) [XZ689, 4-((2-(4-(1-(4-(2-((2-(2,6-dioxopiperidin-3-yl)-1,3-dioxoisoindolin-4-yl)oxy)acetamido)butyl)-1H-1,2,3-triazol-4-yl)phenyl)imidazo[1,2-a]pyridin-3-yl)amino)benzoic acid] | –
– | – | – | – | O=C(O)c1ccc(Nc2c(-c3ccc(OS(=O)(=O)F)cc3)nc3cc(-c4ccccc4)ccn23)cc1 [XZ728, 4-((2-(4-((Fluorosulfonyl)oxy)phenyl)-7-phenylimidazo[1,2-a]pyridin-3-yl)amino)benzoic acid] | IC50 (TDP2; [3]): > 100 µM; IC50 (TDP1; [3]): > 100 µM
– | – | > 100 | >2 | O=C(O)c1ccc(Nc2c(-c3ccc(CO/N=C/c4ccc(-c5ccccc5)cc4)cc3)nc3cc(-c4ccccc4)ccn23)cc1 [XZ705, (E)-4-((2-(4-(((([1,1′-Biphenyl]-4-ylmethylene)amino)oxy)methyl)phenyl)-7-phenylimidazo[1,2-a]pyridin-3-yl)amino)benzoic acid] | –
> 100 | > 100 | – | – | Cc1ncsc1-c1ccc(CNC(=O)[C@@H]2C[C@@H](O)CN2C(=O)[C@@H](NC(=O)COCCOCCn2cc(-c3ccn4c(Nc5ccc(C(=O)O)cc5)c(-c5ccccc5)nc4c3)nn2)C(C)(C)C)cc1 [XZ682, 4-((7-(1-(2-(2-(2-(((S)-1-((2S,4R)-4-Hydroxy-2-((4-(4-methylthiazol-5-yl)benzyl)carbamoyl)pyrrolidin-1-yl)-3,3-dimethyl-1-oxobutan-2-yl)amino)-2-oxoethoxy)ethoxy)ethyl)-1H-1,2,3-triazol-4-yl)-2-phenylimidazo[1,2-a]pyridin-3-yl)amino)benzoic acid] | –
– | – | – | – | N#Cc1ccc(-c2ccc(Cn3cc(COc4ccc(-c5nc6ccccn6c5Nc5ccc(C(=O)O)cc5)cc4)nn3)cc2)nc1 [XZ721, 4-((2-(4-((1-(4-(5-Cyanopyridin-2-yl)benzyl)-1H-1,2,3-triazol-4-yl)methoxy)phenyl)imidazo[1,2-a]pyridin-3-yl)amino)benzoic acid] | IC50 (TDP2; [4]): > 100 µM; IC50 (TDP1; [4]): 60 ± 17 µM; FC (fold change) (TDP1; Table 8, ratio of IC50 TDP2 to TDP1): >1
– | – | – | – | O=C(O)c1ccc(Nc2c(-c3cccc(OS(=O)(=O)F)c3)nc3cc(-c4ccccc4)ccn23)cc1 [XZ729, 4-((2-(3-((Fluorosulfonyl)oxy)phenyl)-7-phenylimidazo[1,2-a]pyridin-3-yl)amino)benzoic acid] | IC50 (TDP2; [3]): > 100 µM; IC50 (TDP1; [3]): > 100 µM
– | – | > 100 | >2 | Cc1cncc(Oc2ccc(/C=N\OCc3ccc(-c4nc5cc(-c6ccccc6)ccn5c4Nc4ccc(C(=O)O)cc4)cc3)cc2)n1 [XZ711, (Z)-4-((2-(4-((((4-((6-methylpyrazin-2-yl)oxy)benzylidene)amino)oxy)methyl)phenyl)-7-phenylimidazo[1,2-a]pyridin-3-yl)amino)benzoic acid] | –
> 100 | > 100 | – | – | O=C(COc1cccc2c1C(=O)N(C1CCC(=O)NC1=O)C2=O)NCCCCn1cc(-c2ccn3c(Nc4ccc(C(=O)O)cc4)c(-c4ccccc4)nc3c2)nn1 (stereo not shown) [XZ685, 4-((7-(1-(4-(2-((2-(2,6-dioxopiperidin-3-yl)-1,3-dioxoisoindolin-4-yl)oxy)acetamido)butyl)-1H-1,2,3-triazol-4-yl)-2-phenylimidazo[1,2-a]pyridin-3-yl)amino)benzoic acid] | –
– | – | > 100 | >13 | O=C(O)c1ccc(Nc2c(-c3ccc(CO/N=C\c4ccc(N5CCCC5=O)cc4)cc3)nc3cc(-c4ccccc4)ccn23)cc1 [XZ710, (Z)-4-((2-(4-((((4-(2-Oxopyrrolidin-1-yl)benzylidene)amino)oxy)methyl)phenyl)-7-phenylimidazo[1,2-a]pyridin-3-yl)amino)benzoic acid] | –
> 100 | > 100 | – | – | Cc1ncsc1-c1ccc(CNC(=O)[C@@H]2C[C@@H](O)CN2C(=O)[C@@H](NC(=O)COCCOCCOCCOCCn2cc(-c3ccn4c(Nc5ccc(C(=O)O)cc5)c(-c5ccccc5)nc4c3)nn2)C(C)(C)C)cc1 [XZ684, 4-((7-(1-((S)-16-((2S,4R)-4-Hydroxy-2-((4-(4-methylthiazol-5-yl)benzyl)carbamoyl)pyrrolidine-1-carbonyl)-17,17-dimethyl-14-oxo-3,6,9,12-tetraoxa-15-azaoctadecyl)-1H-1,2,3-triazol-4-yl)-2-phenylimidazo[1,2-a]pyridin-3-yl)amino)benzoic acid] | –
– | – | > 100 | >1 | Cc1cncc(Oc2ccc(/C=N/OCc3ccc(-c4nc5cc(-c6ccccc6)ccn5c4Nc4ccc(C(=O)O)cc4)cc3)cc2)n1 [XZ704, (E)-4-((2-(4-((((4-((6-methylpyrazin-2-yl)oxy)benzylidene)amino)oxy)methyl)phenyl)-7-phenylimidazo[1,2-a]pyridin-3-yl)amino)benzoic acid] | –
> 100 | > 100 | – | – | O=C(COc1cccc2c1C(=O)N(C1CCC(=O)NC1=O)C2=O)NCCCCn1cc(COc2ccc(-c3nc4cc(-c5ccccc5)ccn4c3Nc3ccc(C(=O)O)cc3)cc2)nn1 (stereo not shown) [XZ686, 4-((2-(4-((1-(4-(2-((2-(2,6-Dioxopiperidin-3-yl)-1,3-dioxoisoindolin-4-yl)oxy)acetamido)butyl)-1H-1,2,3-triazol-4-yl)methoxy)phenyl)-7-phenylimidazo[1,2-a]pyridin-3-yl)amino)benzoic acid] | –
– | – | > 100 | >2 | O=C(O)c1ccc(Nc2c(-c3ccc(CO/N=C\c4ccc(-c5ccccc5)cc4)cc3)nc3cc(-c4ccccc4)ccn23)cc1 [XZ712, (Z)-4-((2-(4-(((([1,1′-Biphenyl]-4-ylmethylene)amino)oxy)methyl)phenyl)-7-phenylimidazo[1,2-a]pyridin-3-yl)amino)benzoic acid] | –
> 100 | > 100 | – | – | O=C1CCC(N2C(=O)c3cccc(NCCCCCCNCc4ccc(-c5nc6cc(-c7ccccc7)ccn6c5Nc5ccc(C(=O)O)cc5)cc4)c3C2=O)C(=O)N1 (stereo not shown) [XZ742, 4-((2-(4-(((6-((2-(2,6-Dioxopiperidin-3-yl)-1,3-dioxoisoindolin-4-yl)amino)hexyl)amino)methyl)phenyl)-7-phenylimidazo[1,2-a]pyridin-3-yl)amino)benzoic acid] | –

Structure (SMILES) | IC50 (TDP2; Table 10, PROTACs) [µM] | IC50 (TDP1; Table 10, PROTACs) [µM] | IC50 (TDP2; [1]) [µM] | FC (fold change) (TDP1; [2]) | further results
N#Cc1ccc(-c2ccc(/C=N\OCc3ccc4nc(-c5ccccc5)c(Nc5ccc(C(=O)O)cc5)n4c3)cc2)nc1 [XZ717, (Z)-4-((6-((((4-(5-Cyanopyridin-2-yl)benzylidene)amino)oxy)methyl)-2-phenylimidazo[1,2-a]pyridin-3-yl)amino)benzoic acid] | – | – | > 100 | >2 | IC50 (TDP1; [1]): 50.3 ± 10.7 µM
